Experimental data taken from article PMC12507957 (Drug Delivery and Translational Research, 2025).
Where two headings read alike, the source gives them in different places.

Experiments:
[1] = Forced degradation studies of MTG; assay type: physicochemical; settings: over 24 h
Protocol: Samples were taken at 6, 12 and 24 h for dissolution and/or dilution before HPLC analysis (Sect. HPLC analysis).
(§1) Samples were analysed using Shimadzu liquid chromatographic system (Kyoto, Japan) with SPD-20A UV–vis detector set at 254 nm. A reverse phase ZORBAX Eclipse Plus C18 column (Agilent Technologies, 150 × 4.6 mm ID × 3.5 μm) coupled with a C18 guard column (Phenomenex SecurityGuard™, 4 × 3.0 mm ID × 5 μm) was employed as the stationary phase. A gradient elution method with acetonitrile and 0.1%v/v of formic acid as the mobile phase (30:70 to 70:30 (v/v) over 1 min and held until 4 min; then returned to 30:70 (v/v) from 4 to 6 min and held up until 10 min) at a flow rate of 1.2 mL/min was used. The injection volume was set at 100 μL and the total run time was 10 min with a retention time of ~ 4 min.

[2] = In vitro skin permeation of MTG from gel formulations, with infinite dose model fitting; assay type: in vitro ADME, porcine; settings: for Permeation (cumulative amount of MTG permeated): 48 h
Protocol: The in vitro permeation study was performed in triplicate using Franz diffusion cell apparatus with a diffusion area of ~ 0.8 cm^2 and a receptor volume of ~ 3 mL. The porcine skin was thawed at room temperature and cut into an appropriate size before mounting on the Franz diffusion cells. The receptor compartment was filled with PBS containing 0.02%w/v of sodium azide and a selected antioxidant. The Franz diffusion cells were placed into a water bath to maintain the skin temperature at 32 ± 0.5 °C. […] After 48-h permeation studies, the mass balance studies were performed. The samples were extracted for MTG content overnight before HPLC analysis.
To estimate the permeation parameters (P1 and P2), the in vitro permeation data were fitted to the infinite dose model (Eq. 1) using non-linear least squares. This infinite dose model was obtained by solving the diffusion equation using Laplace transform, which was subsequently numerically inverted using Weeks method and fitted to in Python 3.13.3 (Python Software Foundation, Wilmington, DE, US).1 Q¯s=J·A/s=P1ACd/ss/P2sinhs/P2
Here, Q¯s is the cumulative amount of drug permeated, J is the permeation flux, A is the permeation area, Cd is the initial concentration, h is the membrane thickness and s is the Laplace variable. The apparent partition and apparent diffusion coefficients, P1 and P2, are related to the h and the diffusion (D) and partition (K) coefficients, as defined in Eq. 2 and Eq. 3 [32]. The goodness of fit was measured based on the coefficient of determination (R^2) and root mean square error (RMSE).2 P1=Kh 3 P2=D/h^2
The permeability coefficient (Kp), steady-state flux (Jss) and lag time (tlag) can then be calculated using Eqs. 4, 5, and 6 [33] with the estimated values of P1 and P2 from the curve fitting.4 Kp=P1P2 5 Jss=KpCd 6 tlag=h^2/6D
Other permeation parameters were determined experimentally, where A was 0.7–0.8 cm^2, h was 0.0586 cm, Cd was 50 mg/mL and the volume of drug loaded was 40 µL.
BHT at the optimised concentration was also added accordingly. The gels were evaluated for their drug content by mixing the gel in methanol for overnight extraction of MTG before HPLC analysis (Sect. HPLC analysis). In vitro drug release studies were carried out with a similar experimental setup as described in Sect. In vitro permeation and mass balance studies but porcine skin was replaced with a 0.45 µm nylon membrane filter and 40 μL of gel was loaded on the membrane at the donor compartment. Subsequent in vitro permeation and mass balance studies were performed as described in Sect. In vitro permeation and mass balance studies by loading 40 μL of the gel on the skin.

[3] = Mass balance studies after 48-h skin permeation of MTG in solvents; assay type: in vitro ADME, porcine; settings: for recovery at 48 h, 5 %w/v: pig
Protocol: The in vitro permeation study was performed in triplicate using Franz diffusion cell apparatus with a diffusion area of ~ 0.8 cm^2 and a receptor volume of ~ 3 mL. The porcine skin was thawed at room temperature and cut into an appropriate size before mounting on the Franz diffusion cells. The receptor compartment was filled with PBS containing 0.02%w/v of sodium azide and a selected antioxidant. The Franz diffusion cells were placed into a water bath to maintain the skin temperature at 32 ± 0.5 °C. […] After 48-h permeation studies, the mass balance studies were performed.
Subsequently, the surface of the skin was washed twice with 500 μL of methanol before adding to the same Eppendorf tube containing the cotton buds. The skin was removed from the dissembled Franz diffusion cell and cut into pieces before placing in another Eppendorf tube containing 1 mL of methanol. All samples were vortexed and analysed using HPLC (Sect. HPLC analysis).
as §1

[4] = 5%w/v MTG in DMSO, receptor PBS with 0.01%w/v ascorbic acid (DMSO-AA), 48 h
[5] = 5%w/v MTG in Labrasol, receptor PBS with 0.01%w/v ascorbic acid (Labrasol-AA), 48 h
[6] = 5%w/v MTG in Labrasol, receptor PBS without ascorbic acid, 48 h
[7] = 5%w/v MTG in Lauroglycol, receptor PBS with 0.01%w/v ascorbic acid (Lauroglycol-AA), 48 h
[8] = 5%w/v MTG in Lauroglycol, receptor PBS without ascorbic acid, 48 h
[9] = 5%w/v MTG in Maisine, receptor PBS with 0.01%w/v ascorbic acid (Maisine-AA), 48 h
[10] = 5%w/v MTG in Maisine, receptor PBS without ascorbic acid, 48 h
[11] = 5%w/v MTG in PG, receptor PBS with 0.01%w/v ascorbic acid (PG-AA), 48 h
[12] = 5%w/v MTG in Transcutol, receptor PBS with 0.01%w/v ascorbic acid (Transcutol-AA), 48 h
[13] = 5%w/v MTG in Transcutol, receptor PBS without ascorbic acid, 48 h

CC[C@@H]1CN2CCc3c([nH]c4cccc(OC)c34)[C@@H]2C[C@@H]1/C(=C\OC)C(=O)OC [MTG, mitragynine]
Degradation of MTG ([1]; oxidative and alkaline conditions): ~ 95% | Degradation of MTG ([1]; thermal degradation): ~ 90% | Permeation (cumulative amount of MTG permeated) ([2]; 1% MTG gel with DMSO and BHT): 4.76 ± 0.79 μg/cm^2 | Jss (steady-state flux) ([2]; 1% MTG gel with PG and BHT): 0.95 μg/cm^2/h | Permeation (cumulative amount of MTG permeated) ([2]; 1% MTG gel with PG and BHT): 4.92 ± 0.44 μg/cm^2 | Permeation (cumulative amount of MTG permeated) ([2]; 1% MTG gel with Transcutol and BHT): 3.95 ± 0.81 μg/cm^2 | tlag (lag time) ([2]; across all gel formulations): 9 to 14 h | Papp at 1 % ([2]; pig, 1% MTG gel with DMSO and BHT, read-out: Kp (permeability coefficient) (converted)): 0.00447 ×10⁻⁶ cm/s | Papp at 1 % ([2]; pig, 1% MTG gel with PG and BHT, read-out: Kp (permeability coefficient) (converted)): 0.00525 ×10⁻⁶ cm/s | Papp at 48 h, 1 % ([2]; pig, 1% MTG gel with Transcutol and BHT, read-out: Kp (permeability coefficient) (converted)): 0.00376 ×10⁻⁶ cm/s | Permeation (%) [3, 4]: 0.77 ± 0.12% | Skin extraction [3, 4]: 0.91 ± 0.19% | Washing (on skin surface) [3, 4]: 48.69 ± 0.86% | Permeation (%) [3, 5]: 0.08 ± 0.05% | Skin extraction [3, 5]: 3.23 ± 1.80% | Washing (on skin surface) [3, 5]: 70.50 ± 5.24% | Permeation (%) [3, 6]: 0.07 ± 0.07% | Skin extraction [3, 6]: 3.67 ± 0.45% | Washing (on skin surface) [3, 6]: 65.82 ± 5.20% | Permeation (%) [3, 7]: 0.18 ± 0.12% | Skin extraction [3, 7]: 1.96 ± 1.22% | Washing (on skin surface) [3, 7]: 57.28 ± 15.05% | Permeation (%) [3, 8]: 0.04 ± 0.01% | Skin extraction [3, 8]: 0.52 ± 0.38% | Washing (on skin surface) [3, 8]: 66.42 ± 2.26% | Permeation (%) [3, 9]: 0.42 ± 0.13% | Skin extraction [3, 9]: 1.34 ± 0.55% | Washing (on skin surface) [3, 9]: 60.12 ± 1.46% | Permeation (%) [3, 10]: 0.11 ± 0.10% | Skin extraction [3, 10]: 0.45 ± 0.18% | Washing (on skin surface) [3, 10]: 61.67 ± 5.42% | Permeation (%) [3, 11]: 0.30 ± 0.11% | Skin extraction [3, 11]: 1.04 ± 0.20% | Washing (on skin surface) [3, 11]: 45.95 ± 5.07% | Permeation (%) [3, 12]: 0.51 ± 0.22% | Skin extraction [3, 12]: 2.29 ± 0.57% | Washing (on skin surface) [3, 12]: 50.98 ± 9.49% | Permeation (%) [3, 13]: 0.19 ± 0.07% | Skin extraction [3, 13]: 2.08 ± 1.11% | Washing (on skin surface) [3, 13]: 71.94 ± 8.01% | recovery at 48 h, 5 %w/v ([3]; 5%w/v MTG in DMSO, receptor PBS with 0.01%w/v ascorbic acid (DMSO-AA), 48 h, read-out: Total percentage (mass balance recovery)): 50.7 ± 1.17% | recovery at 48 h, 5 %w/v ([3]; 5%w/v MTG in Labrasol, receptor PBS with 0.01%w/v ascorbic acid (Labrasol-AA), 48 h, read-out: Total percentage (mass balance recovery)): 75.7 ± 7.09% | recovery at 48 h, 5 %w/v ([3]; 5%w/v MTG in Labrasol, receptor PBS without ascorbic acid, 48 h, read-out: Total percentage (mass balance recovery)): 70.1 ± 5.72% | recovery at 48 h, 5 %w/v ([3]; 5%w/v MTG in Lauroglycol, receptor PBS without ascorbic acid, 48 h, read-out: Total percentage (mass balance recovery)): 67.4 ± 2.65% | recovery at 48 h, 5 %w/v ([3]; 5%w/v MTG in PG, receptor PBS with 0.01%w/v ascorbic acid (PG-AA), 48 h, read-out: Total percentage (mass balance recovery)): 47.6 ± 5.37% | recovery at 48 h, 5 %w/v ([3]; 5%w/v MTG in Transcutol, receptor PBS without ascorbic acid, 48 h, read-out: Total percentage (mass balance recovery)): 75.4 ± 9.19% | recovery at 48 h, 5 %w/v ([3]; Mitragynine recovery in mass balance studies, 5%w/v in single solvent systems): < 80%
